# In patent publication US20090131337A1, “HAIR GROWTH COMPOSITION” (AJINOMOTO CO. INC, priority 2006, published 2009):
# How the values were obtained:
# hair papilla cells = assay: Hair papilla cell proliferation test (MTT method); type: cell-based; details: concentration used 100 · mol/L; 2 days culture; DMEM with 1% FCS; medium free of hair growth components = 100
# Procedure: (1) Using a proliferation medium PCGM: Papilla Cell Growth Medium (purchased from TOYOBO CO., LTD., TPGM-250), hair papilla cells were plated to a cell seeding density of 1.0×10^4 cells/well in a 96 well plate.
# (§1) (2) After culturing at 37° C. in a 5% carbon dioxide gas (CO2) atmosphere for one day, the medium was removed, and the cells were washed with an evaluation medium used for cell proliferation tests, i.e., DMEM (Dulbecco's Modified Eagle's Medium) medium containing 1% FCS (fetal bovine serum). Then, various test components were dissolved in a similar evaluation medium and added to various concentrations (* mol/l).
# (3) Subsequently, the cells were further cultured at 37° C. in a 5% carbon dioxide gas (CO2) atmosphere for 2 days, and the hair papilla cell proliferation rate was measured by the MTT method.
# (§2) (4) The relative evaluation value was calculated based on the rate obtained using a medium free of various hair growth components as 100, and the value was taken as the proliferation rate.
# [1] = test system: human epidermal keratinocytes; assay: Human epidermal keratinocyte proliferation test (MTT method, MCDB153 medium); type: cell-based; details: concentration used 50 · mol/L, 2 days culture, medium free of hair growth components = 100
# Procedure: (1) Using a serum-free proliferation medium HuMedia-KB2 (purchased from KURABO INDUSTRIES LTD., KK-2350S) added with a proliferation additive HuMedia-KG (purchased from KURABO INDUSTRIES LTD., KK-6150), human epidermal keratinocytes were plated to a cell seeding density of 2.0×10^4 cells/well in a 96 well plate.
# as §1, with “MCDB153 medium.” for “DMEM (Dulbecco's Modified Eagle's Medium) medium containing 1% FCS (fetal bovine serum).”
# (3) Subsequently, the cells were further cultured at 37° C. in a 5% carbon dioxide gas (CO2) atmosphere for 2 days, and the human epidermal keratinocyte proliferation rate was measured by the MTT method.
# as §2
# [2] = Solubility of glutamyllysine powder in solvents; type: physicochemical
SMILES,hair papilla cell proliferation rate (%) (hair papilla cells),keratinocyte proliferation rate (%) [1] [%],"solubility in alkaline water, acidic water ([2]; alkaline water, acidic water and the like)","solubility in organic solvents ([2]; various organic solvents such as methanol, ethanol, acetone)"
Nc1ncnc2c1ncn2[C@@H]1O[C@H](CO)[C@@H](O)[C@H]1O [adenosine],99,118,,
Nc1cc(N2CCCCC2)nc(N)[n+]1[O-] [minoxidil],113,117,,
"NC(CCCCNC(=O)CCC(N)C(=O)O)C(=O)O (centres unmarked) [glutamyllysine, Epsilon-N-(gamma-glutamyl)lysine]",124,131,soluble,hardly soluble or insoluble
